Measured values reported in US20030236218A1, “Aryl phosphate derivatives of d4T with selective activity against adenovirus and HIV” (priority 2002, published 2003).
Values joined by “and” are separate entries in the source; they are usually repeats but may differ in a detail not shown here. Equal entries are not always repeated. Where two headings read alike, the source gives them in different places.

How the values were obtained:
[1] = Stability in simulated intestinal fluid; type: in vitro ADME; conditions: 100 μM, 37° C.
Method: The spiked fluids were then placed in a 37° C. water bath. At a predetermined time, 100 μI aliquots of the spiked gastric or intestinal fluid were extracted by adding 400 μl of acetone as discussed above.

[2] = Pharmacokinetic studies in mice, oral administration; type: in vivo, Balb/c mice; conditions: for AUC / Cmax / Tmax / t1/2: plasma analyte = label, after oral 100 mg/kg compound 113
Method: Female Balb/c mice (6-8 weeks old) from Taconic (Germantown, N.Y.) were housed in a controlled environment (12-hours of light/12-hours of dark, 22±1° C., 60±10% relative humidity), which is fully accredited by the USDA. All rodents were housed in microisolator cages (Lab Products, Inc., NJ) containing autoclaved bedding. The mice were allowed free access to autoclaved pellet food and tap water throughout the study. All animal care procedures conformed to the Guide for the Care and Use of Laboratory Animals (National Research Council, National Academy Press, Washington D.C. 1996).
Sampling time points were 0, 2, 5, 10, 15, 30, 45, 60, 120, 240 and 360 minutes after the gavage.
(§7) All collected blood samples were heparinized and centrifuged at 7000×g for 5 minutes to separate the plasma fraction from the whole blood. The plasma samples were then processed immediately using the extraction procedure described above.
(§8) Pharmacokinetic modeling and parameter calculations were carried out using the WinNonlin Professional Version 3.0 (Pharsight, Inc., Mountain, Calif.) pharmacokinetics software (Chen et al., Pharm. Res., 16, 1003 (1999); Chen et al., Pharm. Res., 16, 117 (1999); Chen et al., J. Clin. Pharmacol., 39, 1248 (1999); Uckun et al., Clin. Cancer Res., 5, 2954 (1999); and Uckun et al., J. Pharmacol. Exp. Ther., 291, 1301 (1999)). An appropriate model was chosen on the basis of the lowest sum of weighted squared residuals, the lowest Schwartz Criterion (SC), the lowest Akaike's Information Criterion (AIC) value, the lowest standard errors of the fitted parameters, and the dispersion of the residuals. The elimination half-life was estimated by linear regression analysis of the terminal phase of the plasma concentration-time profile. The area under the concentration-time curve (AUC) was calculated according to the linear trapezoidal rule between the first sampling time (0 hours) and the last sampling time plus C/k, where C is the concentration of the last sampling and k is the elimination rate constant. The systemic clearance (CL) was determined by dividing the dose by the AUC. The metabolic clearance of the parent drug, the formation clearance of the metabolite, the clearance elimination of the metabolite, and the distribution clearance of the metabolite were estimated by simultaneous fitting of the concentration of parent drug and metabolites as a function of time curve to pharmacokinetic models (see FIGS. 7A & 8A) specified as a system of differential equations (Gabrielsson & Weiner, Phamacokinetic/Phamacodynamic Data Analysis: Concepts and Applications, Swedish Pharmaceutical Press (1997)).

Stability in plasma = type: in vitro ADME; conditions: spiked plasma; 250 μM compound 113, 100 μM Ala-d4T-MP (followed for 1 day)
Method: Plasma samples (200 μL) were mixed 1:4 with acetone (800 μL) and vortexed for at least 30 seconds. Following centrifugation, the supernatant was transferred into a clean tube and was dried under nitrogen. A 50 μL solution of 50% methanol in 200 mM HCl was used to reconstitute the extraction residue, and 40 μL was injected into the HPLC.
(§1) The whole blood samples were placed in a 37° C. water bath, while plasma samples were stored at −20° C. At a predetermined time, an aliquot (100 μl) of spiked whole blood or plasma was extracted by adding 400 μl of acetone to induce precipitation of proteins, as described above.

Stability in whole blood = type: in vitro ADME; conditions: spiked whole blood 37° C.; 250 μM compound 113, 100 μM Ala-d4T-MP (followed for 1 day)
Method: as §1

[3] = Pharmacokinetic studies in mice, intravenous administration; type: in vivo, Balb/c mice; conditions: for AUC / CL / Cmax / Vss / t1/2 / Tmax: plasma analyte = label
Method: Female Balb/c mice (6-8 weeks old) from Taconic (Germantown, N.Y.) were housed in a controlled environment (12-hours of light/12-hours of dark, 22±1° C., 60±10% relative humidity), which is fully accredited by the USDA. All rodents were housed in microisolator cages (Lab Products, Inc., NJ) containing autoclaved bedding. The mice were allowed free access to autoclaved pellet food and tap water throughout the study.
Blood samples (˜500 μL) were obtained from the ocular venous plexus by retro-orbital venipuncture at 0, 2, 5, 10, 15, 30, 45, 60, 120, 240 and 360 minutes after intravenous injection.
as §7, §8

[4] = test system: respiratory syncytial virus (RSV), strain Long; assay: RSV plaque formation assay in HEP-2 cells; type: cell-based; conditions: human respiratory syncytial virus, HEp-2
From the text: (§2) Virus stocks. The HIV-1 strain used in this study was HTLV-IIIB (Uckun et al., 1998 Antimicro. Agents and Chemother., 42:383-388). The non-HIV viruses included in the present study were the gancyclovir-sensitive cytomegalovirus (CMV) strain AD169 (ATCC VR-538); acyclovir-sensitive herpes simplex virus (HSV) Type I strain HF (ATCC VR-260); acyclovir-sensitive HSV Type II strain G (ATCC VR-734); adenovirus strain Type 5, strain adenoid 75 (ATCC VR-5); enterovirus strain, ECHO 30, strain Bastianni (ATCC VR-322); and respiratory syncytial virus (RSV), strain Long (ATCC VR-26).
(§3) Plaque formation assays. Plaque assays were used to examine the activity of the compounds against non-HIV viruses. The skin fibroblast cell line SF (ATCC CRL-2097) was used as a target for AD169, Adenovirus Type 5. […] cell line (ATCC CCL-81) was used as a target for HSV HF and G. The HEP-2 cell line (ATCC CCL-23) was used as a target for the RSV strain Long. These cell lines were cultured at 1×10^5 cells/well in 24-well (all but ECHO 30-infected SF) or 6-well (ECHO 30-infected SF) tissue culture plates with 0.9% methylcellulose or 0.4% SeaPlaque agarose semisolid support. […] Percent inhibition of plaque formation was calculated by comparing the plaque numbers from the test substance-treated infected cells with the plaque numbers from untreated infected cells (i.e., virus controls). The IC50 values were determined using the Statview statistics program (SAS Institute, Inc., Cary, N.C.).
(§4) Statistical analysis. […] An IC50 value was calculated from each set of triplicate wells using nonlinear regression modeling of the exponential form of the linearized equation (Statview, SAS Institute, Inc., Cary, N.C.). […]
(§5) The skin fibroblast cell line SF (ATCC CRL-2097) was used as a target for AD169, Adenovirus Type 5, and ECHO 30; the VERO cell line (ATCC CCL-81) was used as a target for HF and G; and the HEP-2 cell line (ATCC CCL-23) was used as target for the RSV strain Long. Results are expressed as the average IC50 values in μM. […]

[5] = test system: enterovirus strain, ECHO 30, strain Bastianni; assay: Enterovirus plaque formation assay in SF cells; type: cell-based
From the text: as §2, §3, §4, §5

[6] = test system: cytomegalovirus (CMV) strain AD169; assay: CMV plaque formation assay in SF cells; type: cell-based; conditions: Human betaherpesvirus 5
From the text: as §2, §3, §4, §5

[7] = test system: herpes simplex virus (HSV) Type I strain HF; assay: HSV-1 plaque formation assay in VERO cells; type: cell-based; conditions: Human alphaherpesvirus 1, HSV-1, Strain HF
From the text: as §2, §3, §4, §5

[8] = Hydrolysis rate in alkali conditions; type: physicochemical
Method: (§6) Statistical analysis. Each drug was tested at 6-7 different concentrations ranging from 0.0001 μM to 100 μM. Each assay was set up in triplicate wells and repeated 1-3 times. An IC50 value was calculated from each set of triplicate wells using nonlinear regression modeling of the exponential form of the linearized equation (Statview, SAS Institute, Inc., Cary, N.C.). Hydrolysis rates were determined by fitting single exponential decay equations to the disappearance of the compound in alkali conditions (all R^2 values greater than 0.85). The IC50 values obtained were correlated to the log transformed hydrolysis rate constants by fitting a linear model (JMP Software, SAS Institute Inc., Cary, N.C.). P-values less than 0.05 were deemed significant.

skin fibroblasts = assay: Cytotoxicity in skin fibroblasts (plaque assay); type: cell-based; conditions: ADV plaque formation assay
Method: as §3, with “support. Minimum Essential Medium (MEM) with Earle's salts (Gibco), L-glutamine, non-essential amino acids, 2% heat-inactivated fetal bovine serum, 1% penicillin/streptomycin, and 0.05% gentamicin served as the culture medium. The incubation times were 3 days for HF, G, ECHO 30, and Long; and 7 days for AD169 and Adenovirus Type 5.” for “support.”

Solubility = type: physicochemical; conditions: read-out: Solubility
HSV Type II strain G = assay: HSV-2 plaque formation assay in VERO cells; type: cell-based, herpes simplex virus Type II; conditions: Human alphaherpesvirus 2, HSV-2, Strain G
From the text: as §2, §3, §4, §5

HIV-1 strain HTLV-IIIB = assay: In vitro anti-HIV-1 activity, p24 antigen assay in PBMNC; type: cell-based; conditions: Human immunodeficiency virus 1, HIV-1, HTLV-IIIB, day 7
From the text: as §2
In vitro assays of anti-HIV-1 activity. Normal human peripheral blood mononuclear cells (PBMNC) from HIV-negative donors were cultured 72 hours in RPMI 1640 supplemented with 20% (v/v) heat-inactivated fetal bovine serum (FBS), 3% interleukin-2, 2 mM L-glutamine, 25 mM HEPES, 2 g/L NaHCO3, 50 Tg/mL gentamicin, and 4 Tg/mL phytohemagglutinin prior to exposure to HIV-1 at a multiplicity of infection (MOI) of 0.1 during a 1 hour adsorption period at 37° C. in a humidified 5% CO2 atmosphere. Subsequently, cells were cultured in 96-well microtiter plates (100 TL, 2×10^6 cells/mL) in the presence of various concentrations of compounds 113 or 609. Aliquots of culture supernatants were removed from the wells on the seventh day after infection for p24 antigen assays, as previously described. […] Percent viral inhibition was calculated by comparing the p24 values from untreated infected cells (i.e., virus controls).
Statistical analysis. […] An IC50 value was calculated from each set of triplicate wells using nonlinear regression modeling of the exponential form of the linearized equation (Statview, SAS Institute, Inc., Cary, N.C.). Hydrolysis rates were determined by fitting single exponential decay equations to the disappearance of the compound in alkali conditions (all R^2 values greater than 0.85). […]

[9] = test system: adenovirus strain Type 5, strain adenoid 75; assay: Adenovirus plaque formation assay in skin fibroblast cell line SF; type: cell-based, human adenovirus
From the text: as §2
Plaque formation assays. Plaque assays were used to examine the activity of the compounds against non-HIV viruses. The skin fibroblast cell line SF (ATCC CRL-2097) was used as a target for AD169, Adenovirus Type 5. […] cell line (ATCC CCL-81) was used as a target for HSV HF and G. The HEP-2 cell line (ATCC CCL-23) was used as a target for the RSV strain Long. These cell lines were cultured at 1×10^5 cells/well in 24-well (all but ECHO 30-infected SF) or 6-well (ECHO 30-infected SF) tissue culture plates with 0.9% methylcellulose or 0.4% SeaPlaque agarose semisolid support. Minimum Essential Medium (MEM) with Earle's salts (Gibco), L-glutamine, non-essential amino acids, 2% heat-inactivated fetal bovine serum, 1% penicillin/streptomycin, and 0.05% gentamicin served as the culture medium. The incubation times were 3 days for HF, G, ECHO 30, and Long; and 7 days for AD169 and Adenovirus Type 5. Plaque counting was performed with a 20X dissecting microscope for AD169, Type 5, ECHO 30, and RSV Long, and with a light box for HF and G. The fixative agent was crystal violet for all viruses, except for the CMV strain AD169 for which methylene blue was used. Percent inhibition of plaque formation was calculated by comparing the plaque numbers from the test substance-treated infected cells with the plaque numbers from untreated infected cells (i.e., virus controls). The IC50 values were determined using the Statview statistics program (SAS Institute, Inc., Cary, N.C.).
as §6, with “Hydrolysis rates were determined by fitting single exponential decay equations to the disappearance of the compound in alkali conditions (all R^2 values greater than 0.85).” left out
The skin fibroblast cell line SF (ATCC CRL-2097) was used as a target for AD169, Adenovirus Type 5, and ECHO 30; the VERO cell line (ATCC CCL-81) was used as a target for HF and G; and the HEP-2 cell line (ATCC CCL-23) was used as target for the RSV strain Long. Results are expressed as the average IC50 values in μM. Stavudine (STV) was included as a control.

[10] = Octanol/water partition coefficient, shake flask method; type: physicochemical; conditions: 4 hours at room temperature, read-out: Oct/Water (log P)
Method: HPLC purification was achieved using a reverse-phase Lichrospher column (250×4 mm, Hewlett-Packard, RP-18, Cat. #79925) and an isocratic flow (1 ml/minute) consisting of water (70%) and acetonitrile (30%). Melting points were determined using a Melt John's apparatus and are uncorrected. Column chromatography was performed using silica gel obtained from Baker Company. The octanol/water partition coefficient was determined by the shake flask method. The phosphoramidate analogs were added to 2 ml of water and 2 ml of octanol in a glass vial. The mixture was shaken for 4 hours at room temperature. The two phases were carefully separated and filtered through a Millipore filter and analyzed by HPLC. The partition coefficient was calculated using the ratio of the area under the curve for octanol and water, respectively.

[11] = estimate from composite curve of pooled data
[12] = after i.v. Ala-d4T-MP, model fit, C.V. of modeling in parentheses
[13] = after i.v. compound 113, model fit, C.V. of modeling in parentheses
[14] = after i.v. 75 mg/kg Ala-d4T-MP, estimate from composite curve of pooled data
[15] = after i.v. 75 mg/kg Ala-d4T-MP, mean ± S.E.M
[16] = after i.v. 100 mg/kg compound 113, estimate from composite curve of pooled data
[17] = after i.v. 100 mg/kg compound 113, mean ± S.E.M

## Cc1cn([C@H]2C=C[C@@H](COP(=O)(O)NC(C)C(=O)O)O2)c(=O)[nH]c1=O (stereo partly drawn) [Ala-d4T-MP, alaninyl-d4T-monophosphate]
[1]
  stability in intestinal fluid (in words): stable
[2]; metabolite = label, after oral administration of compound 113
  estimated bioavailability: approximately 12%
[2]; [11]
  AUC: 1350.5 µM·min
  Cmax: 12.7 µM
  Tmax: 10.3 min
  t1/2: 66.4 min
[2]; mean ± S.E.M
  AUC: (1355.4 ± 88.2) μM · min
  Cmax: 15.6 µM
  Tmax: (9.3 ± 0.9) min
  t1/2: (56.1 ± 8.5) min
Stability in plasma
  stability in plasma (in words): stable
Stability in whole blood
  stability in whole blood (in words): stable
[3]; after i.v. Ala-d4T-MP
  share of CLm1 in the total systemic clearance: 99%
[3]; [12]
  CLm1 (metabolic clearance of Ala-d4T-MP / formation clearance of d4T): 15.6 ml/min/kg and 15.6 (16.6%) ml/min/kg
  CLpd (distribution of Ala-d4T-MP to extravascular compartment): 4.7 ml/min/kg and 4.7 (44.7%) ml/min/kg
[3]; [13]
  CLm3 (metabolic clearance of Ala-d4T-MP / formation clearance of d4T): 36.1 mL/min/kg
  CLm1d (distribution of Ala-d4T-MP to the extravascular compartment): 47.1 ml/min/kg and 62.0 (69.8%) ml/min/kg
[3]; metabolite = label, after i.v. compound 113
  fraction of parent converted to the metabolite (fm): 23%
[3]; [14]
  AUC: 11648.7 µM·min
  CL: 15.8 mL/min/kg
  Cmax: 1210 µM
  Vss: 0.2755 L/kg
  t1/2: 28.5 min
[3]; [15]
  AUC: (11761.5 ± 447.2) μM · min
  CL: (15.7 ± 0.6) ml/min/kg
  Cmax: 1660 µM
  Vss: (412.6 ± 126.3) ml/kg
  t1/2: (91.5 ± 54.5) min
[3]; [16]
  AUC: 2854.8 µM·min
  Cmax: 67.4 µM
  Tmax: 5.9 min
  t1/2: 129.2 min
[3]; [17]
  AUC: (2795.9 ± 361.2) μM · min
  Cmax: 69.3 µM
  Tmax: (5.1 ± 0.7) min
  t1/2: (138.8 ± 40.2) min

## COC(=O)C(C)NP(=O)(OCC1C=CC(n2cc(C)c(=O)[nH]c2=O)O1)Oc1ccc(Cl)cc1 (stereo not drawn) [Compound 609, 5′-[4-Chlorophenylmethoxyalaninyl phosphate]-2′, 3′-didehydro-3′-deoxy thymidine]
[4]
  IC50: > 100000 nM
[5]
  IC50: > 100000 nM
[6]
  IC50: > 100000 nM
[7]
  IC50: > 100000 nM
[8]
  Hydrolysis Rate: 0.0216 min⁻¹
Skin fibroblasts
  cytotoxicity (in words): without cytotoxicity
Solubility
  Solubility: 1400 µg/mL
HSV Type II strain G
  IC50: > 100000 nM
HIV-1 strain HTLV-IIIB
  IC50: 1 nM
[9]; Adenovirus Type 5, 7 days, ± s.e., read-out: IC50, ADV-induced plaque formation
  IC50: 26.7 nM and 27 nM
[9]; read-out: IC50, ADV-induced plaque formation, Adenovirus Type 5, 7 days, ± s.e.
  IC50: 2.7 ± 3 nM
[10]
  logP at 4 h: 0.64
